{"source": "paper PMC6193938", "about": "“Characterization of a novel AICARFT inhibitor which potently elevates ZMP and has anti-tumor activity in murine models” (Scientific Reports, 2018)", "key": {"PDK1": {"molecular_target": "T1, PDK1 (Homo sapiens, UniProt O15530)", "T1 construct": "purchased CEREP Panlabs (Eurofins)", "T1 sequence (O15530 1-556)": "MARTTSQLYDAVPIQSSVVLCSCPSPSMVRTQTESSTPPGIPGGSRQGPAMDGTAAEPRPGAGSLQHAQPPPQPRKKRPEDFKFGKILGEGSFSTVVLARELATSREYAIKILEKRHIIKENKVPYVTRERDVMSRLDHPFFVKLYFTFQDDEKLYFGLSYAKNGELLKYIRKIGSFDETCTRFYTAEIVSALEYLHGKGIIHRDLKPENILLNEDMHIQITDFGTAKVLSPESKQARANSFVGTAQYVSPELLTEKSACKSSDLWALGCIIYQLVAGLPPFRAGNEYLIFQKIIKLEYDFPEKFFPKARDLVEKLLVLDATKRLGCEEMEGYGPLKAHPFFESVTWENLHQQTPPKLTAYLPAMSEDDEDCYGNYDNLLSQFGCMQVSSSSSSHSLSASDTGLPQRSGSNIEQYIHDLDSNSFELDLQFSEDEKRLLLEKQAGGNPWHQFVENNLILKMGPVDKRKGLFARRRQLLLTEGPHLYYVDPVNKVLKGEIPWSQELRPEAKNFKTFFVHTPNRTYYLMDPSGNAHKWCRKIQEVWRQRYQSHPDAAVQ", "assay": "CEREP protein kinase assay", "type": "biochemical"}, "FGR": {"molecular_target": "T2, FGR (Homo sapiens, UniProt P09769)", "T2 construct": "purchased CEREP Panlabs (Eurofins)", "T2 sequence (P09769 whole entry)": "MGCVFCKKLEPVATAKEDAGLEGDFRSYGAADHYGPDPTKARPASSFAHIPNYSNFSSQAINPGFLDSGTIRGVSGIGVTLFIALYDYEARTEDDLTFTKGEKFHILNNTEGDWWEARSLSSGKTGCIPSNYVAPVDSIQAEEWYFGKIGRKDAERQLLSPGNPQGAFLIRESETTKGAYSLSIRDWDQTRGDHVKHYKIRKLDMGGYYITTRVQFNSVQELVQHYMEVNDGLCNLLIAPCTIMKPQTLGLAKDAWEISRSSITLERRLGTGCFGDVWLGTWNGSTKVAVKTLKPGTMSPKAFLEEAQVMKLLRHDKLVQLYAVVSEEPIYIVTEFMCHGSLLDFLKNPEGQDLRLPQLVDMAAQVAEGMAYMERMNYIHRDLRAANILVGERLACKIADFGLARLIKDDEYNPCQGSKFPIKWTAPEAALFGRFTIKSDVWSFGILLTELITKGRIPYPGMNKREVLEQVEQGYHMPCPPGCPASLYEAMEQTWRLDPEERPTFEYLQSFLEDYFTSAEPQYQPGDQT", "assay": "CEREP protein kinase assay", "type": "biochemical"}, "MDA-MB-231met2": {"tested_on": "MDA-MB-231met2", "assay": "In vitro proliferation assay (Alamar Blue)", "type": "cell-based, human", "procedure": "Cells lines were acquired from cell banks, see supplemental material, grown using the cell banks recommended culture conditions (Supplemental Table 3). In some experiments noted “low folate” the cells were washed and grown in folate free RPMI-1640 media (Gibco #27016-021) supplemented with 5 ml 1 M Hepes, 5 ml 100 mM Na pyruvate, 2.5 mg/ml glucose and 10% defined FBS (Hyclone #SH30070) per 500 mL media for 5–7 days to deplete intracellular folate levels prior to the start of the experiment. Where noted, cells were maintained in complete “high folate” RPMI-1640 media (ATCC #30-2001) with 10% defined FBS to contrast with the low folate conditions. […]\nCells were cultured using recommended culture conditions unless noted otherwise (Supplemental Table 3). Cells were plated, dosed with compound and incubated at 37 °C for approximately 2 doubling times as determined for each cell line. Cell Titer Glo (Promega) assay was used to measure proliferation according to manufacturer’s recommendations by measuring luminescence with Flexstation3 (Molecular Devices) with 500 ms integration time. […]\nFor a limited number of cell lines, compound dosing was performed under high or low folate conditions with cell viability being determined with Alamar Blue rather than an ATP dependent assay. […] The % inhibition for each sample was calculated and fit as described above."}, "TBK1": {"molecular_target": "T3, TBK1 (Homo sapiens, UniProt Q9UHD2)", "T3 construct": "purchased CEREP Panlabs (Eurofins)", "T3 sequence (Q9UHD2 1-729)": "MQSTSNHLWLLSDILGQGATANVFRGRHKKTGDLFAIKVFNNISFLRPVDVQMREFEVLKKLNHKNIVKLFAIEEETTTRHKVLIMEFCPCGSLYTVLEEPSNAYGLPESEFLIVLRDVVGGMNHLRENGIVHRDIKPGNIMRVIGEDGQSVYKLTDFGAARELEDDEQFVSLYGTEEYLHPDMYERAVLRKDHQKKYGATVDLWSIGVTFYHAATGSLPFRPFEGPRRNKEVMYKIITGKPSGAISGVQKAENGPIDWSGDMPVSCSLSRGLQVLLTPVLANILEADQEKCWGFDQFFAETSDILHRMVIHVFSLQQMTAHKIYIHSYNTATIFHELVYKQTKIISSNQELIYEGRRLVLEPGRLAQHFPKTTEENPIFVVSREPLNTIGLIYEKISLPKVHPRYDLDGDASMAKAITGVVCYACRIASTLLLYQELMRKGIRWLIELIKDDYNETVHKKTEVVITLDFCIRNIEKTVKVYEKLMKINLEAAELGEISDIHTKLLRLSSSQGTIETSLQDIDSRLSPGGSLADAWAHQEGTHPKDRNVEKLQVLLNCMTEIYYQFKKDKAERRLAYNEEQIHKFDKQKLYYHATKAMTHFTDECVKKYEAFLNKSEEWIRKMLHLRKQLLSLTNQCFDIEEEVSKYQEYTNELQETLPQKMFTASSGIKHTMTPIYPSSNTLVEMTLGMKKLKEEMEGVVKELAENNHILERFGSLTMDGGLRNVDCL", "assay": "CEREP protein kinase assay", "type": "biochemical"}, "CK2": {"molecular_target": "T4, CK2 (Homo sapiens, UniProt P68400)", "T4 construct": "purchased CEREP Panlabs (Eurofins)", "T4 sequence (P68400 whole entry)": "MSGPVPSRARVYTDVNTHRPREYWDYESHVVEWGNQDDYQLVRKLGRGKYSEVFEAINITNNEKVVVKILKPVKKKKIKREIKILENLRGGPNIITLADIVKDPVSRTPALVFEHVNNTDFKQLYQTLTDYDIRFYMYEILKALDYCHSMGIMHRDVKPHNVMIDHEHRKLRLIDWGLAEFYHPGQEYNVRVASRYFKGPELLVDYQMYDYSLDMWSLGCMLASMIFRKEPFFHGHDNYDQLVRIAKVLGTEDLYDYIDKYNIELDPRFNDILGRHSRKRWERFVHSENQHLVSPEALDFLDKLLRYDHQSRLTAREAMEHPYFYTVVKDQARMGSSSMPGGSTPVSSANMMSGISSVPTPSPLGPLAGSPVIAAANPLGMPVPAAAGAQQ", "assay": "CEREP protein kinase assay", "type": "biochemical"}, "[1]": {"conditions": "mouse, in vivo"}}, "data": [{"smiles": "O=c1[nH]ccc2cc(F)c(NS(=O)(=O)c3ccc(N4CC[C@@H](O)C4)s3)cc12", "note": "[LSN3213128, N-(6-Fluoro-1-oxo-1,2-dihydroisoquinolin-7-yl)-5-[(3R)-3-hydroxypyrrolidin-1-yl]thiophene-2-sulfonamide]", "values": [{"measurement": "inhibition at 0.2 µM", "setting": "PDK1; @ 0.2 uM", "result": 14.1, "unit": "%"}, {"measurement": "inhibition at 2 µM", "setting": "PDK1; @ 2 uM", "result": 15.8, "unit": "%"}, {"measurement": "inhibition at 20 µM", "setting": "PDK1; @ 20 uM", "result": 26.8, "unit": "%"}, {"measurement": "inhibition at 0.2 µM", "setting": "FGR; @ 0.2 uM", "result": -8.47, "unit": "%"}, {"measurement": "inhibition at 2 µM", "setting": "FGR; @ 2 uM", "result": 3.62, "unit": "%"}, {"measurement": "inhibition at 20 µM", "setting": "FGR; @ 20 uM", "result": 42.3, "unit": "%"}, {"measurement": "anti-proliferative effect on supplementation with hypoxanthine", "setting": "MDA-MB-231met2; 32 μM hypoxanthine", "result": "completely abrogated"}, {"measurement": "GI50", "setting": "MDA-MB-231met2; Homo sapiens, RPMI media, Alamar Blue", "result": 88, "unit": "nM"}, {"measurement": "inhibition at 0.2 µM", "setting": "TBK1; @ 0.2 uM", "result": -3.62, "unit": "%"}, {"measurement": "inhibition at 2 µM", "setting": "TBK1; @ 2 uM", "result": 13.1, "unit": "%"}, {"measurement": "inhibition at 20 µM", "setting": "TBK1; @ 20 uM", "result": 11, "unit": "%"}, {"measurement": "inhibition at 0.2 µM", "setting": "CK2; @ 0.2 uM", "result": -7.53, "unit": "%"}, {"measurement": "inhibition at 2 µM", "setting": "CK2; @ 2 uM", "result": -0.227, "unit": "%"}, {"measurement": "inhibition at 20 µM", "setting": "CK2; @ 20 uM", "result": 1.58, "unit": "%"}, {"measurement": "tolerability of efficacy studies", "setting": "[1]", "result": "toxicity upon repeated dosing"}]}]}
